Measured values: patent US20250221960A1, “COMPOSITIONS AND METHODS FOR THE TREATMENT OF DEPRESSION” (Janssen Pharmaceuticals, Inc., priority 2022, published 2025)

System: subjects with MDD
Assay: SHAPS total score (anhedonia), Example 1
Assay type: in vivo, human
Settings: for SHAPS Total Score Change from Baseline LSMean (SE), MMRM / SHAPS Total Score Effect Size vs placebo / SHAPS Total Score LSMean Difference (SE) Treatment - Placebo, MMRM: 10 mg
Description: To assess a potential effect on anhedonia, an anhedonia scale may be used. For example, the Snaith-Hamilton Pleasure Scale (SHAPS) analysis is a validated scale for the measurement of anhedonia. The SHAPS is a subject completed scale in which subjects score whether or not they experience pleasure in performing a list of activities or experiences. The SHAPS is a self-reported 14-item instrument, developed for the assessment of hedonic capacity. Subjects score whether they experience pleasure in performing a list of activities or experiences. Subjects can rate the answers as 1-4 where 1 indicates “Definitely agree”, 2 indicates “Agree”, 3 indicates “Disagree” and 4 indicates “Definitely disagree”. The subject's item responses are summed to provide a total score ranging from 14 to 56. A higher total SHAPS score indicates higher levels of current anhedonia. Physician/clinical judgment can be used to assess anhedonia separately or in conjunction with an anhedonia scale.
In some embodiments, the patient has anhedonia. In some embodiments, the patient has moderate anhedonia. In other embodiments, the patient has severe anhedonia. An assessment of moderate or severe anhedonia is typically determined physician/clinical judgment and/or by one or more tests that provide insight into whether a patient has anhedonia. For example, the severity of the anhedonia may be determined using the SHAPS method. In some embodiments, a patient with moderate or severe anhedonia is considered to have a high level of anhedonia. For example, a patient with a SHAPS score of 38 or greater is considered to have moderate to severe anhedonia that can be considered a high level of anhedonia. In some embodiments, a high level of anhedonia is reflected by a SHAPS score of at least about 40, about 42, about 44, about 46, about 48, about 50, about 52, about 54, about 56, about 58, or higher. A patient with mild or no anhedonia would be considered to have a low level of anhedonia that is assessed by physician/clinical judgment and/or one or more tests. For example, a patient with a SHAPS score of less than 38 is considered to have low anhedonia. In certain embodiments, a patient with mild anhedonia may have a SHAPS score of 20 to less than 38, for example, a SHAPS score of 20 to about 36, about 22 to about 36, about 24 to about 36, about 26 to about 36, about 26 to about 34, about 26 to about 32, about 26 to about 30, about 26 to about 28, about 28 to about 36, about 28 to about 36, about 30, to about 36, about 32 to about 36, about 34 to about 36, about 20 to about 34, about 22 to about 34, about 24 to about 34, about 26 to about 32, about 26 to about 30, about 26 to about 28, about 28 to about 36, about 28 to about 34, about 28 to about 32, about 28 to about 30, about 30 to about 36, about 30 to about 34, about 30 to about 32, about 32 to about 36, about 32 to about 34, or about 34 to about 36. Typically, a SHAPS score of less than 20 can be considered to correspond to normal hedonic functioning, and for purposes of this disclosure, would fall into the low category of anhedonia, e.g., a SHAPS score of less than 38.
iii. To investigate the effect of aticaprant versus placebo on depression related anhedonia as assessed by the SHAPS.
The treatment phase consisted of 3 periods. […] There were 11 scheduled visits, including screening.

## Cc1cc(C)cc(C2CCCN2Cc2ccc(Oc3ccc(C(N)=O)cc3F)cc2)c1 (stereo not shown) [aticaprant, 3-fluoro-4-4-2-(3,5-dimethylphenyl) pyrrolidin-1-yl-methylphenoxybenzamide]
Treatment Week 6, eITT, N = 59
  Frequency of Subjects: High Level of Anhedonia (SHAPS Total Score >= 38): 8 (13.56%)
  Frequency of Subjects: Low Level of Anhedonia (20 <= SHAPS Total Score < 38): 48 (81.36%)
  Frequency of Subjects: No Anhedonia (SHAPS Total Score < 20): 3 (5.08%)
Treatment Week 6, fITT, N = 77
  Frequency of Subjects: High Level of Anhedonia (SHAPS Total Score >= 38): 8 (10.39%)
  Frequency of Subjects: Low Level of Anhedonia (20 <= SHAPS Total Score < 38): 62 (80.52%)
  Frequency of Subjects: No Anhedonia (SHAPS Total Score < 20): 7 (9.09%)
eITT, Treatment Week 1
  SHAPS Total Score Change from Baseline LSMean (SE), MMRM: −1.7
  SHAPS Total Score Effect Size vs placebo: −0.15
  SHAPS Total Score LSMean Difference (SE) Treatment - Placebo, MMRM: −0.8
eITT, Treatment Week 3
  SHAPS Total Score Change from Baseline LSMean (SE), MMRM: −3.2
  SHAPS Total Score Effect Size vs placebo: −0.25
  SHAPS Total Score LSMean Difference (SE) Treatment - Placebo, MMRM: −1.4
eITT, Treatment Week 4
  SHAPS Total Score Change from Baseline LSMean (SE), MMRM: −4.3
  SHAPS Total Score Effect Size vs placebo: −0.23
  SHAPS Total Score LSMean Difference (SE) Treatment - Placebo, MMRM: −1.4
eITT, Treatment Week 5
  SHAPS Total Score Change from Baseline LSMean (SE), MMRM: −4.0
  SHAPS Total Score Effect Size vs placebo: −0.08
  SHAPS Total Score LSMean Difference (SE) Treatment - Placebo, MMRM: −0.5
eITT, Treatment Week 6
  SHAPS Total Score Change from Baseline LSMean (SE), MMRM: −4.4
  SHAPS Total Score LSMean Difference (SE) Treatment - Placebo, MMRM: −0.7
fITT, Treatment Week 1
  SHAPS Total Score Change from Baseline LSMean (SE), MMRM: −1.9
  SHAPS Total Score Effect Size vs placebo: −0.15
  SHAPS Total Score LSMean Difference (SE) Treatment - Placebo, MMRM: −1.0
fITT, Treatment Week 3
  SHAPS Total Score Change from Baseline LSMean (SE), MMRM: −3.1
  SHAPS Total Score Effect Size vs placebo: −0.20
  SHAPS Total Score LSMean Difference (SE) Treatment - Placebo, MMRM: −1.4
fITT, Treatment Week 4
  SHAPS Total Score Change from Baseline LSMean (SE), MMRM: −4.1
  SHAPS Total Score Effect Size vs placebo: −0.23
  SHAPS Total Score LSMean Difference (SE) Treatment - Placebo, MMRM: −1.6
fITT, Treatment Week 5
  SHAPS Total Score Change from Baseline LSMean (SE), MMRM: −4.1
  SHAPS Total Score Effect Size vs placebo: −0.09
  SHAPS Total Score LSMean Difference (SE) Treatment - Placebo, MMRM: −0.8
fITT, Treatment Week 6
  SHAPS Total Score Change from Baseline LSMean (SE), MMRM: −4.5
  SHAPS Total Score LSMean Difference (SE) Treatment - Placebo, MMRM: −0.8
